Source: ChEMBL document CHEMBL2028040, “Malaria Box”

What was measured:
[1] = system: Plasmodium falciparum; experiment: MMV: Inhibition of Plasmodium falciparum 3D7 at 2uM compound concentration.; type: functional
[2] = system: Plasmodium falciparum; experiment: MMV: Inhibition of Plasmodium falciparum 3D7 (EC50).; type: functional, organism-based
[3] = system: Trypanosoma cruzi; experiment: MMV: Inhibition of Trypanosoma cruzi (Tulahuen C4 LacZ) (Chagas in vitro).; type: functional, organism-based
[4] = system: Trypanosoma brucei brucei; experiment: MMV: Inhibition of Trypanosoma brucei brucei (Squib 427) (HAT in vitro).; type: functional, organism-based
[5] = system: Trypanosoma brucei rhodesiense; experiment: MMV: Inhibition of Trypanosoma brucei rhodesiense (STIB 900) (HAT in vitro).; type: functional, organism-based
[6] = system: Leishmania infantum; experiment: MMV: Inhibition of Leishmania infantum (MHOM/MA/BE/67) in vitro.; type: functional, organism-based
[7] = MMV: Cytotoxicity against human fibroblasts (MRC-5) cells.; details: MRC-5 cells (human fibroblasts)

SMILES | EC50 [2] | IC50 [3] | IC50 [4] | IC50 [5] | IC50 [6] | inhibition at 2 µM [1] | IC50 [7]
Cc1ccc(Nc2nc(N)c3ccccc3n2)cc1Cl | 4 µM | 3.81 µM | 3.35 µM | 6.53 µM | 4 µM | 96% | 15.4 µM
COc1cc(SC)ccc1C(=O)N1CCCC(C)C1 (stereo not given) | 4 µM | > 32 µM | > 32 µM | > 32 µM | > 32 µM | 45% | > 32 µM
Cc1ccc2c(C)nc(Nc3nc(C)cc(-c4ccccc4)n3)nc2c1 | 4 µM | 21.1 µM | > 32 µM | 27.7 µM | > 32 µM | 73% | > 32 µM
CCOc1ccc(Nc2ccnc3cc(Cl)ccc23)cc1 | 4 µM | > 32 µM | > 32 µM | > 32 µM | > 32 µM | 94% | > 32 µM
CCc1ccc(Nc2cc(C)nc3nc(C)nn23)cc1 | 4 µM | > 32 µM | > 32 µM | > 32 µM | > 32 µM | 81% | > 32 µM

The next lines start with results.

EC50 [2] | IC50 [3] | IC50 [4] | IC50 [5] | IC50 [6] | SMILES | inhibition at 2 µM [1] | IC50 [7]
2 µM | 3.66 µM | 3.57 µM | 3.51 µM | 4.06 µM | COc1ccc2nc(C)cc(Nc3ccc(Cl)cc3)c2c1 | 95% | > 32 µM
4 µM | 15.8 µM | 9.07 µM | 12.1 µM | 12 µM | COc1cccc(Nc2nc(N)c3ccccc3n2)c1 | 94% | > 32 µM
4 µM | > 32 µM | > 32 µM | > 32 µM | > 32 µM | CN1CCN(c2c3c(c(C#N)c4nc5ccccc5n24)CCC3)CC1 | 42% | > 32 µM
4 µM | 13.7 µM | 3.73 µM | 3.49 µM | 4 µM | CCOc1ccc2nc(C)cc(Nc3ccc(N(C)C)cc3)c2c1 | 94% | 18.6 µM
0.4 µM | 11.4 µM | 17.6 µM | 11.4 µM | 4.32 µM | Cc1cccc(Nc2nc(N)c3ccccc3n2)c1 | 97% | > 32 µM
